Earlier results, collected in US5480779A (priority 1988, dated 1996).

target: peptidyl-prolyl cis-trans-isomerase (Sus scrofa, UniProt P62936)
Sequence (P62936 whole entry): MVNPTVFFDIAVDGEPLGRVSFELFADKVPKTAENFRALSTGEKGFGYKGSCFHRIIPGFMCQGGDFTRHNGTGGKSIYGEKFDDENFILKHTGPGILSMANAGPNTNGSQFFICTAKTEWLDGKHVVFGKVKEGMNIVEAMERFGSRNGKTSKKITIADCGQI

Compound | inactivation / inhibition of the enzyme
CCCCCCCCCCCCOS(=O)(=O)[O-].[Na+] [sodium dodecylsulfate] | strongly inactivated
O=C(O)c1cc[c]([Hg][Cl])cc1 [p-chloromercuribenzoate] | strongly inactivated
chloroiosylamidophenylbutane | not inhibited
